Values belong to the molecule of their own block, whether it stands above or below them. Activity calls are given as the source filed them. No cut-off for these calls is given here.
Legend:
[1] = target: T1, Dual specificity calcium/calmodulin-dependent 3',5'-cyclic nucleotide phosphodiesterase 1C (Homo sapiens, UniProt Q14123); assay: Inhibition of PDE1C2 (147 to 531 residues) (unknown origin) using 3H-cGMP as substrate incubated for 15 mins by liquid scintillation counter analysis
[2] = target: T1, Dual specificity calcium/calmodulin-dependent 3',5'-cyclic nucleotide phosphodiesterase 1C; assay: Inhibition of PDE1C2 (147 to 531 residues) (unknown origin) using 3H-cGMP as substrate at 8000 nM incubated for 15 mins by liquid scintillation counter analysis relative to control
Rattus norvegicus [3] = assay: Antifibrotic activity against bile duct ligation induced Sprague-Dawley rat liver fibrosis model assessed as increase in cAMP level in liver at 2.5 mg/kg,ip administrated once daily for 21 days by ELISA; assay type: functional, organism-based; conditions: time 21.0 day
Rattus norvegicus [4] = assay: Antifibrotic activity against bile duct ligation induced Sprague-Dawley rat liver fibrosis model assessed as reduction in ALT level at 2.5 mg/kg,ip administrated once daily for 21 days; assay type: functional, organism-based; conditions: time 21.0 day
Rattus norvegicus [5] = assay: Antifibrotic activity against bile duct ligation induced Sprague-Dawley rat liver fibrosis model assessed as reduction in total bile acid level at 2.5 mg/kg,ip administrated once daily for 21 days; assay type: functional, organism-based; conditions: time 21.0 day
Rattus norvegicus [6] = assay: Antifibrotic activity against bile duct ligation induced Sprague-Dawley rat liver fibrosis model assessed as reduction in collagen deposition at 2.5 mg/kg,ip administrated once daily for 21 days by Masson's trichome staining based analysis; assay type: functional, organism-based; conditions: time 21.0 day
Rattus norvegicus [7] = assay: Antifibrotic activity against bile duct ligation induced Sprague-Dawley rat liver fibrosis model assessed as reduction in alpha-smooth muscle actin level in liver at 2.5 mg/kg,ip administrated once daily for 21 days by immunofluorescence staining based analysis; assay type: functional, organism-based; conditions: time 21.0 day
Rattus norvegicus [8] = assay: Antifibrotic activity against bile duct ligation induced Sprague-Dawley rat liver fibrosis model assessed as reduction in liver damage at 2.5 mg/kg,ip administrated once daily for 21 days by hematoxylin and eosin staining based analysis; assay type: functional, organism-based; conditions: time 21.0 day
[9] = Half life in rat liver microsomes at 1.5 uM; assay type: ADME, Microsome
Rattus norvegicus [10] = assay: Antifibrotic activity against bile duct ligation induced Sprague-Dawley rat liver fibrosis model assessed as increase in cGMP level in liver at 2.5 mg/kg,ip administrated once daily for 21 days by ELISA; assay type: functional, organism-based; conditions: time 21.0 day
Rattus norvegicus [11] = assay: Antifibrotic activity against bile duct ligation induced Sprague-Dawley rat liver fibrosis model assessed as downregulation of alpha-SMA expression in liver at 2.5 mg/kg,ip administrated once daily for 21 days by Western blotting analysis; assay type: functional, organism-based; conditions: time 21.0 day
Rattus norvegicus [12] = assay: Antifibrotic activity against bile duct ligation induced Sprague-Dawley rat liver fibrosis model assessed as reduction in AST level at 2.5 mg/kg,ip administrated once daily for 21 days; assay type: functional, organism-based; conditions: time 21.0 day
Rattus norvegicus [13] = assay: Antifibrotic activity against bile duct ligation induced Sprague-Dawley rat liver fibrosis model assessed as reduction in fibrotic lesion at 2.5 mg/kg,ip administrated once daily for 21 days by hematoxylin and eosin staining based analysis; assay type: functional, organism-based; conditions: time 21.0 day
Rattus norvegicus [14] = assay: Antifibrotic activity against bile duct ligation induced Sprague-Dawley rat liver fibrosis model assessed as downregulation of collagen I expression in liver at 2.5 mg/kg,ip administrated once daily for 21 days by Western blotting analysis; assay type: functional, organism-based; conditions: time 21.0 day

T1 sequence (Q14123 whole entry, the tested form may be a part): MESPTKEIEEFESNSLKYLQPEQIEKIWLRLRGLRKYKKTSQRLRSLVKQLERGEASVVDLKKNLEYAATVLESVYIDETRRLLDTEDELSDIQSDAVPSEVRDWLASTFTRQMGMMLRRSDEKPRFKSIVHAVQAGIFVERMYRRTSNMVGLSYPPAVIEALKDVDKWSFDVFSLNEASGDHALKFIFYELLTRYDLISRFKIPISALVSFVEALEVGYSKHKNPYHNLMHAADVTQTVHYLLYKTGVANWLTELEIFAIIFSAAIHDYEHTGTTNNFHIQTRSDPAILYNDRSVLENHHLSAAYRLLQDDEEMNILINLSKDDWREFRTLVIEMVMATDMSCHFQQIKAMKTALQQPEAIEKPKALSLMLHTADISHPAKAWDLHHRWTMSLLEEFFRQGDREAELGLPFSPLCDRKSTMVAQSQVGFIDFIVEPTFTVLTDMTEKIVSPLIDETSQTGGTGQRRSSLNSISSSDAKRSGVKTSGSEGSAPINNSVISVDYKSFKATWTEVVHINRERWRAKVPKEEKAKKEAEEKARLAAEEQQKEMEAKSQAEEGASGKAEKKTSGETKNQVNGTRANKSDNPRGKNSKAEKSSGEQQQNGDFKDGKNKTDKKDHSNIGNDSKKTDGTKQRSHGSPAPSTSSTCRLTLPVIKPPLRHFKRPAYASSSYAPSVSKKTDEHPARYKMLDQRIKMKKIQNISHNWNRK

SMILES: CCNC(=O)N1C(=O)NC(C)=C(C(=O)OCC2CCCCC2)C1c1ccc(OC(F)F)c(OCC2CC2)c1 (stereo unspecified)
IC50 [1]: 4690 nM

SMILES: CC1=C(C(=O)OCC2CCCCC2)C(c2ccc(OC(F)F)c(OCC3CC3)c2)N(C(=O)/C=C/c2ccccc2)C(=O)N1 (stereo unspecified)
IC50 [1]: 6060 nM

SMILES: CC1=C(C(=O)OCC2CCCCC2)C(c2ccc(OC(F)F)c(OCC3CC3)c2)N(/C=C/Cc2ccccc2)C(=O)N1 (stereo unspecified)
inhibition [2]: 47%

SMILES: COc1ccc(C2NC(=O)NC(C)=C2C(=O)OCC2CCCCC2)cc1OC (stereo unspecified)
IC50 [1]: 3590 nM

SMILES: CC(=O)N1C(=O)NC(C)=C(C(=O)OCC2CCCCC2)C1c1ccc(OC(F)F)c(OCC2CC2)c1 (stereo unspecified)
IC50 [1]: 2320 nM

SMILES: CC1=C(C(=O)OCC2CCCCC2)C(c2ccc(OC(F)F)c(OCC3CC3)c2)N(C)C(=O)N1 (stereo unspecified)
inhibition [2]: 45%

SMILES: CC1=C(C(=O)OCC2CCCCC2)C(c2cccc(Oc3ccccc3)c2)NC(=O)N1 (stereo unspecified)
IC50 [1]: 2940 nM

SMILES: COC(=O)C1=C(C)NC(=O)N(C(=O)SCc2ccccc2)C1c1ccc(OC(F)F)c(OCC2CC2)c1 (stereo unspecified)
IC50 [1]: 103 nM

SMILES: COc1ccc(C2C(C(=O)OCc3ccccc3)=C(C)NC(=O)N2C(=O)OCc2ccccc2)cc1OC (stereo unspecified)
IC50 [1]: 63 nM

SMILES: CC1=C(C(=O)OCC2CCCCC2)C(c2ccc(OC(F)F)c(OCC3CC3)c2)N(Cc2cccc(F)c2)C(=O)N1 (stereo unspecified)
inhibition [2]: 40%

SMILES: CC1=C(C(=O)OCC2CCCCC2)C(c2ccc(Cl)nc2)N(C(=O)OCC2CCCCC2)C(=O)N1 (stereo unspecified)
IC50 [1]: 195 nM

The remaining molecules from weak to strong by IC50 [1], led by results:

IC50 [1]: 51 nM
SMILES: COc1ccc(C2C(C(=O)OCC3CCCCC3)=C(C)NC(=O)N2C(=O)OCC2CCCCC2)cn1 (stereo unspecified)

IC50 [1]: 42 nM
SMILES: CC1=C(C(=O)OCC2CCCCC2)C(c2cccc(OCC3CC3)c2)N(C(=O)SCc2ccccc2)C(=O)N1 (stereo unspecified)

IC50 [1]: 42 nM
SMILES: COc1ccc(C2C(C(=O)OCC3CCCC3)=C(C)NC(=O)N2C(=O)OCC2CCCC2)cc1OC (stereo unspecified)

IC50 [1]: 37 nM
SMILES: COC(=O)C1=C(C)NC(=O)N(C(=O)OCC2CCCCC2)C1c1ccc(OC(F)F)c(OCC2CC2)c1 (stereo unspecified)

IC50 [1]: 21 nM
half-life at 1.5 µM [9]: 7.1 min
SMILES: CC1=C(C(=O)OCC2CCCCC2)C(c2ccc(OC(F)F)cc2)N(C(=O)SCc2ccccc2)C(=O)N1 (stereo unspecified)
Activity (Rattus norvegicus [3]): Active
Activity (Rattus norvegicus [4]): Active
Activity (Rattus norvegicus [5]): Active
Activity (Rattus norvegicus [6]): Active
Activity (Rattus norvegicus [7]): Active
Activity (Rattus norvegicus [8]): Active
Activity (Rattus norvegicus [10]): inactive
Activity (Rattus norvegicus [11]): Active
Activity (Rattus norvegicus [12]): Active
Activity (Rattus norvegicus [13]): Active
Activity (Rattus norvegicus [14]): Active

IC50 [1]: 7.5 nM
half-life at 1.5 µM [9]: 3.03 min
SMILES: CC1=C(C(=O)OCC2CCCCC2)C(c2ccc(OC(F)F)c(OC(F)F)c2)N(C(=O)OCC2CCCCC2)C(=O)N1 (stereo unspecified)

IC50 [1]: 5.9 nM
half-life at 1.5 µM [9]: 2.1 min
SMILES: COc1ccc(C2C(C(=O)OCC3CCCCC3)=C(C)NC(=O)N2C(=O)OCC2CCCCC2)cc1OC (stereo unspecified)

IC50 [1]: 5.8 nM
half-life at 1.5 µM [9]: 6.1 min
SMILES: CC1=C(C(=O)OCC2CCCCC2)C(c2ccc(OC(F)F)c(OCC3CC3)c2)N(C(=S)Oc2ccccc2)C(=O)N1 (stereo unspecified)

IC50 [1]: 2.3 nM
half-life at 1.5 µM [9]: 3.68 min
SMILES: CC1=C(C(=O)OCC2CCCCC2)C(c2ccc(OC(F)F)c(OCC3CC3)c2)N(C(=O)OCC2CCCCC2)C(=O)N1 (stereo unspecified)

— ChEMBL document CHEMBL5506023, “Design, Synthesis, and Evaluation of Dihydropyrimidine Derivatives as Selective PDE1 Inhibitors for the Treatment of Liver Fibrosis” (J Med Chem, 2024)
